Entries after “also recorded” stand apart in the source; their conditions may differ. Numbered stars: 1 amine (or outer) side, 2 acyl side, 3 side chain; on linkers, the order of the positions; unused ones are H or OH. Square brackets hold non-standard residues; d marks the D form. Peptide text beside a SMILES is read from it. X2 = O=C([C@H](CNS(=O)(=O)O)N[*:1])[*:2]; X3 = O=C([C@H](CB(O)O)N[*:1])[*:2]
Experiments:
[1] = test system: LA25 cells (temperature-sensitive pp60^v-Src transformant of NRK); experiment: LA25 cell growth at permissive and non-permissive temperature; assay type: cell-based, rat
Description: (§1) Active Src inhibitors can be studied in a set of side-by-side cell-based assays using normal rat kidney (NRK) cells and a temperature-sensitive pp60^v-Src transformant of this cell line (LA25). The LA25 transformant engages in anchorage- and serum-independent growth at the “permissive” temperature of 33° C. due to activation of pp60^v-src but not at the “non-permissive” temperature of 40° C. at which pp60^v-src is not activated (Li et al., 1996). The use of this pair of closely related cell lines for testing the Src inhibitors at both the permissive and non-permissive temperatures allows one to determine if a given Src inhibitor is blocking cell growth due to specific blockade of the Src signaling pathway, by a different mechanism or by a general cytotoxic effect.
(§2) As shown in this graph the growth of the LA25 cells at the permissive temperature of 33° C. is inhibited by ca. 50% at a 25 μM concentration of 43-meta relative to the LA25 cell growth at the non-permissive 40° C. as a control. […] Since the 43-meta solutions were prepared with a low concentration of DMSO for solubilization, a DMSO control was also run at the same concentration.

[2] = test system: normal rat kidney (NRK) cells; experiment: NRK non-transformed cell growth; assay type: cell-based
Description: as §1, §2

PC-3 = experiment: NIH 60-tumor cell panel assay, PC-3; assay type: cell-based; details: read-out: growth inhibition IC50, PC-3
Text: The initial non-peptide Src inhibitors have also shown very encouraging results in four different series of cell culture assays. 1) In the NIH 60-tumor cell panel assay, broad activity (as one would expect for a Src inhibitor) was seen against the tumor cell lines, including the prostate lines. […] 3) The Src inhibitors were compared to the cancer drugs etoposide, taxol, doxorubicin and cisplatin in ovarian tumors from three different patients and an abdominal carcinoma from another patient. […] 5) Two of the Src inhibitors were also tested for inhibition of ts v-Src stimulated LA25 cell growth. […] 6) Two of the Src inhibitors were also tested for inhibition of normal rat kidney cell growth.

DU-145 = experiment: NIH 60-tumor cell panel assay, DU-145; assay type: cell-based; details: read-out: growth inhibition IC50, DU-145
pp60^c-src = pp60^c-src (Homo sapiens, UniProt P12931); experiment: Src inhibition (RR-SRC phosphorylation), Cellular Mimetic assay; details: for % Inhibition of 2 mM RR-src at Inhibitor Concentration (100 μM): inhibitor 100 μM; for mode of inhibition with respect to ATP: IC50 or % inhibition monitored at ATP increased up to 1 mM; for % Inhibition of 2 mM RR-src at Inhibitor Concentration (1 mM): inhibitor 1 mM
SCID mice = details: mouse, in vivo, ip
Description: These compounds were administered to SCID mice by intraperitoneal administration in tween80:EtOH.

PKA [3] = target: T1, PKA (Homo sapiens, UniProt P17612); experiment: PKA inhibition, Literature Mimetic assay; assay type: biochemical; details: Literature Mimetic assay conditions
Text: (§3) The boronic acid inhibitors 21-24 have two Arg's in their sequence also and therefore will bind to the phosphocellulose paper in addition to Kemptamide (although not as consistently or completely due to one less positive charge). Consequently, when analyzed as inhibitors, the amount of phosphorylated Kemptamide produced was not only counted, but also the amount of phosphorylated inhibitor simultaneously produced (e.g. see 26 below). The net result is that distorted IC50 curves are obtained which show net “stimulation” at higher inhibitor concentrations in some cases. […] The underlying substrate behavior of these “inhibitors” makes an accurate measurement of their inhibition potency impossible with the current assay. However, it does appear from the data that homologating the boronic acid functionality out with only CH2 groups (homologations with boronic acid non-peptide Src inhibitors may also be carried out) decreases the binding affinity and ability to function as a substrate.

PKA [4] = target: T1, PKA; experiment: PKA inhibition, Cellular Mimetic assay; assay type: biochemical; details: Cellular Mimetic assay conditions
Text: as §3

PKA [5] = target: T1, PKA; experiment: STAIRe method: form of the protein kinase the inhibitor binds best to; assay type: biochemical
Text: This was a somewhat surprising result since these inhibitors are analogs of the “end product inhibitors” 1 and 12 which must bind simultaneously with MgADP just following phosphate transfer in the generally accepted reaction mechanism for protein kinases.

Sequence of pp60^c-src (P12931 whole entry): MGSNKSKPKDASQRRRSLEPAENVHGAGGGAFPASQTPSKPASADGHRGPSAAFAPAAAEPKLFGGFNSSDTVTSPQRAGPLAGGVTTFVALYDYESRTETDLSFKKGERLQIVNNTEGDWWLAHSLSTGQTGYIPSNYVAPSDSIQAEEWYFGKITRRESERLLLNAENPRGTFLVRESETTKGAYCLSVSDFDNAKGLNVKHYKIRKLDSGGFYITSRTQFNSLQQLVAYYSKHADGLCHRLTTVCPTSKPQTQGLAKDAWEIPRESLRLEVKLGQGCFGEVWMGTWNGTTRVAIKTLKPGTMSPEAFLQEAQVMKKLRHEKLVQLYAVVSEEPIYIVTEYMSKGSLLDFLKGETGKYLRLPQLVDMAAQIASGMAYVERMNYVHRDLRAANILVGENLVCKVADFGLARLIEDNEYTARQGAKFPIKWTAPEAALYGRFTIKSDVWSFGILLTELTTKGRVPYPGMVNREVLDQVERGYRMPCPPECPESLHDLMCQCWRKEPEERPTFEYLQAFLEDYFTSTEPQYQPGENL

## O=C(Nc1cccc(O)c1)c1cc2cccc(O)c2cc1O [Compound 45]
[1]
  v-Src induced (Src stimulated) LA25 cell growth: specifically blocked the v-Src induced cell growth
[2]
  normal growth of the parent non-transformed cells: without inhibiting the normal growth of the parent non-transformed cells

## O=C(NCc1cccc(F)c1)c1cc2cc(F)ccc2[nH]1 [Compound 1z]
other
  melting point: 239 to 241 °C

## O=C(Nc1cccc(O)c1)c1cc2ccc(O)cc2cc1O [Compound 43-meta]
[1]
  v-Src induced (Src stimulated) LA25 cell growth: specifically blocked the v-Src induced cell growth
[1]; Rattus norvegicus, read-out: inhibition of growth of LA25 cells at the permissive temperature of 33° C., 25 μM, relative to LA25 growth at non-permissive 40° C.
  inhibition at 25 µM: ~50%
[2]
  normal growth of the parent non-transformed cells: without inhibiting the normal growth of the parent non-transformed cells
[2]; up to 400 μM, NRK cells, LA25 cells at 40° C. and at 33° C.
  cell toxicity: lack of cell toxicity

## O=C(NCc1cccc(O)c1)c1cc2cc(O)ccc2[nH]1 [Compound 49-meta]
PC-3
  IC50: 39 µM
DU-145
  IC50: > 100 µM

## NS(=O)(=O)c1ccc2ccccc2c1 [Compound 31]
pp60^c-src; Table IV
  % Inhibition of 2 mM RR-src at Inhibitor Concentration (100 μM): 0 (100 μM) %

## OB(O)c1ccc2ccccc2c1 [Compound 27, 2-naphthalene boronic acid]
pp60^c-src
  mode of inhibition with respect to ATP: not ATP-competitive inhibitors; also recorded: NON-ATP COMPETITIVE

## O=P(O)(O)c1cccc2ccccc12 [Compound 33]
pp60^c-src; Table IV
  % Inhibition of 2 mM RR-src at Inhibitor Concentration (1 mM): 1 (1 mM) %

## O=S(=O)(O)Nc1ccc2ccccc2c1 [Compound 28]
pp60^c-src
  mode of inhibition with respect to ATP: not ATP-competitive inhibitors; also recorded: NON-ATP COMPETITIVE
pp60^c-src; Table IV
  IC50: 1600 µM
  Ki: 963 µM
  % Inhibition of 2 mM RR-src at Inhibitor Concentration (1 mM): 31%

## CC[C@H](C)[C@H](NC(=O)[C@H](CB(O)O)NC(=O)CNC(=O)[C@H](CCCNC(=N)N)NC(=O)[C@H](CCCNC(=N)N)NC(C)=O)C(N)=O [Compound 21] (Ac-RRG[X3]I-NH2)
pp60^c-src; read-out: % Inhibition at 100 μM (std. dev.), inhibitor 100 μM, Table IX
  inhibition at 100 µM: 14%

## O=C(NCc1cccc(O)c1)c1cc2cc(F)ccc2[nH]1 [Compound 1a]
SCID mice
  toxicity in MTD study (weight loss): less toxic in mice than compound 2k

## O=S(=O)(O)c1ccc2ccccc2c1 [Compound 29]
pp60^c-src; Table IV
  % Inhibition of 2 mM RR-src at Inhibitor Concentration (1 mM): 0 (1 mM) %

## OB(O)c1cccc2ccccc12 [Compound 32]
pp60^c-src; Table IV
  % Inhibition of 2 mM RR-src at Inhibitor Concentration (100 μM): 0 (100 μM) %

## O=C(Nc1cccc(O)c1)c1cc2ccc(O)cc2cc1O [Compound 3]
pp60^c-src; Table X
  IC50: 16 µM

## NS(=O)(=O)c1cccc2ccccc12 [Compound 34]
pp60^c-src; Table IV
  % Inhibition of 2 mM RR-src at Inhibitor Concentration (100 μM): 0 (100 μM) %

## OB(O)c1cc2ccccc2o1 [Compound 35]
pp60^c-src; Table IV
  % Inhibition of 2 mM RR-src at Inhibitor Concentration (100 μM): 10 (100 μM) %

## OB(O)c1cc2ccccc2s1 [Compound 36]
pp60^c-src; Table IV
  % Inhibition of 2 mM RR-src at Inhibitor Concentration (100 μM): 12 (100 μM) %

## CC[C@H](C)[C@H](NC(=O)[C@H](CNS(=O)(=O)O)NC(=O)CNC(=O)[C@H](CCCNC(=N)N)NC(=O)[C@H](CCCNC(=N)N)NC(C)=O)C(N)=O [Compound 8] (Ac-RRG[X2]I-NH2)
PKA [3]
  times tighter binding than end product phosphate inhibitor 1: 31 ×
PKA [4]
  times tighter binding than end product phosphate inhibitor 1: 108 ×
PKA [5]
  nucleotide form of the kinase bound best (STAIRe): bind best when MgATP (not MgADP or no nucleotide) is also bound
